Assay results reported in US20070244102A1, “Combination of Dermaciclane and Opoids as Analgesics” (priority 2004, published 2007).
Entries after “also recorded” stand apart in the source; their conditions may differ. Where a name gives a salt, the structure may show the parent alone.

Experiments:
mice = test: hot plate test in mice (influence on morphine analgesia); type: in vivo; details: for influence on the analgesic effect of morphine (in words): 30 mg/kg ip. with morphine HCl 1 mg/kg sc.; for analgesia when given alone (in words): alone: morphine HCl 1 mg/kg sc., deramciclane 30 mg/kg ip., buspiron HCl 30 mg/kg ip.
Method: A modified of method of Eddy et al. (Eddy, N. B., Leimback, D., Synthetic Analgesics II. Dithienylbutenyl and Dithienylbutylamines. J. Pharmacol. Exp. Ther. 107: p. 385-393, 1953) was used. Male NMRI nice (20-25 g bodyweight) were dropped on a hot plate (56±0.5° C.) and the latency time elapsed until licking the forepaws was measured. The reaction time was tested twice before treatment. […] Mice were treated either with saline or with morphine HCl 1 mg/kg subcutaneously and at the same time either with vehicle or with deramciclane or buspirone, HCl 30 mg/kg intraperitoneally, respectively. After the treatment (15, 30, 45 and 60 min.) the reaction time was measured again. Animals were regarded as positive if they produced a 2.5-fold reaction time increase at least twice compared to their first control values. Statistical analysis was performed using the chi-square method.

[1] = 1 and 10 mg/kg after oral administration; cited from earlier work
[2] = single 0.7 mg/kg oral treatment; cited from earlier work
[3] = single oral dose of 3 mg/kg; cited from earlier work
[4] = 10 and 30 mg/kg after oral treatment; cited from earlier work
[5] = in the above mentioned doses (0.7-30 mg/kg); cited from earlier work
[6] = Saline sc. + Buspiron HCl 30 mg/kg ip.
[7] = Morphine HCl 1 mg/kg sc. + 0.4% methyl cellulose ip.
[8] = Morphine HCl 1 mg/kg sc. + Saline ip.

Compound	influence on the analgesic effect of morphine (in words) (mice)	Effect % (mice; [6]) [%]	Positive/treated animals (mice; [6])	analgesia when given alone (in words) (mice; listed as buspiron HCl, HCl)	analgesia when given alone (in words) (mice; listed as buspiron, HCl)	Effect % (mice; [7]) [%]	Positive/treated animals (mice; [7])	Effect % (mice; [8]) [%]	Positive/treated animals (mice; [8])	analgesia when given alone (in words) (mice)	Effect % (mice; Saline sc. + Deramciclane 30 mg/kg ip.) [%]	Positive/treated animals (mice; Saline sc. + Deramciclane 30 mg/kg ip., positive = 2.5-fold reaction time increase at least twice, 15-60 min)	activity in Vogel punished drinking test [1]	time spent with social interactions [2]	activity in light-dark model [3]	activity in marble burying model [4]	analgesic activity [5]
O=C1CC2(CCCC2)CC(=O)N1CCCCN1CCN(c2ncccn2)CC1 [Buspiron HCl, buspirone, HCl]	did not influence the analgesic effect of morphine	0	0/10	Neither morphine HCl 1 mg/kg sc. nor deramciclane 30 mg/kg ip. nor buspiron HCl 30 mg/kg ip. alone produced analgesia	neither deramciclane nor buspiron possess analgesic effect in itself												
CN1CC[C@]23c4c5ccc(O)c4O[C@H]2[C@@H](O)C=C[C@H]3[C@H]1C5.Cl [Morphine HCl, morphine HCl]						0	0/10	0	0/10	Neither morphine HCl 1 mg/kg sc. nor deramciclane 30 mg/kg ip. nor buspiron HCl 30 mg/kg ip. alone produced analgesia							
(1R,2S,4R)-(−)-2-[N,N-(dimethylaminoethoxy)]-2-phenyl-1,7,7-trimethylbicyclo[2.2.1]heptane [Deramciclane]	potentiation of the analgesic effect of morphine									Neither morphine HCl 1 mg/kg sc. nor deramciclane 30 mg/kg ip. nor buspiron HCl 30 mg/kg ip. alone produced analgesia; also recorded: neither deramciclane nor buspiron possess analgesic effect in itself	0	0/10	active	increased the time spent with social interactions	active	active	did not possess analgesic activity
